# Assay results from patent publication US12410153B2, “Compounds, compositions and methods” (Avalo Therapeutics, Inc., priority 2014, dated 2025).
# Like-named read-outs stand apart in the source and are kept apart here.
# Assay: Repeated once-daily oral dosing with food (Days 1-7) in healthy subjects, PK and PD
# Type: in vivo, human
# Details: for mean plasma concentrations higher vs young age subgroup: Day 7, 2 to 24 hours postdose; for AUC(0-t) / Cmax / Vd/F / Tmax / AUC(0-inf) / half-life: plasma, oral; for Cmax: read-out: Cmax, Mean (SD); for AUC(0-inf): read-out: AUCinf, Mean (SD); for half-life: read-out: t1/2, Mean (SD) (converted)
# Procedure: A randomized, double-blind, placebo-controlled, parallel-dose group in-patient study is conducted to investigate the pharmacodynamic (PD) effects of crystalline Form II of Compound (I) in healthy subjects.
# The study is designed as a three-part, sequential study. The sequential nature of the study ensures that a range of doses are investigated first in a young, healthy population (Part 1) before proceeding to higher doses in the healthy population and the comparator populations (intermediate age and elderly) (Parts 2 and 3). For the purposes of this study, “young” refers to a subject who is 18 to 45 years of age, “intermediate age” refers to a subject who is 46 to 64 years of age, and “elderly” refers to a subject who is 65 years of age or older.
# After a screening period of up to 21 days (Days −23 to −3), 16 healthy, young male and female subjects are randomly assigned to a dose group as shown in Table 9.
# Each parallel dose group is balanced for gender (approximately equal number of males and females). The randomized subjects are domiciled from Day −1 through Day 8. On Day −1, the subjects receive placebo tablets in the fed state and undergo ambulatory blood pressure monitoring (ABPM) and safety assessments to establish time-matched baselines. On Days 1-7, the subjects receive the study drug in the fed state and undergo safety, pharmacokinetic (PK) and pharmacodynamics (PD) assessments. On Days 8-11, follow-up PK and safety assessments are performed.
# Safety assessments include Clinician-Administered Dissociative States Scale (CADSS), Columbia-Suicide Severity Rating Scale (C-SSRS), concomitant medication, adverse event (AE) and vital sign assessments. In PK assessments, blood samples are taken and analyzed to determine PK parameters such as Cmax, Tmax, AUC0-24, and t1/2. PD assessments include ABPM, plasma brain-derived neurotrophic factor (BDNF) measurements, and Profile of Mood States (POMS) assessments.
# After a screening period of up to 21 days (Days −23 to −3), 16 subjects (8 healthy, young male and female subjects, and 8 healthy, intermediate age male and female subjects) are randomly assigned to a dose group as shown in Table 10.
# After a screening period of up to 21 days (Days −23 to −3), 16 subjects (8 healthy, young male and female subjects, and 8 healthy, elderly male and female subjects) are randomly assigned to a dose group as shown in Table 11.
# [1] = female, human, females, all doses pooled, Day 7
# [2] = females, all doses pooled, Day 1
# [3] = females, all doses pooled, Day 7
# [4] = male, human, males, all doses pooled, Day 7
smiles,measurement,setting,value
"Cc1ccc(COC(=O)N2CC[C@H](CNc3ncccn3)[C@H](F)C2)cc1 [Form II, 4-methylbenzyl (3S, 4R)-3-fluoro-4-[(pyrimidin-2-ylamino)methyl] piperidine-1-carboxylate]","Dose-Normalized Cmax, Mean (SD)","elderly, 12 mg, Day 1",29.11 (3.96) ng/mL/mg
same,"AUC% extrap, Mean (SD)","elderly, 12 mg, Day 7",9.70 (5.93) %
same,"CL/F, Mean (SD)","elderly, 12 mg, Day 7",2.79 (0.72) L/h
same,"Dose-Normalized AUCinf, Mean (SD)","elderly, 12 mg, Day 7",858.67 (325.40) h * ng/mL/mg
same,"Dose-Normalized Cmax, Mean (SD)","elderly, 12 mg, Day 7",29.11 (3.96) ng/mL/mg
same,apparent oral clearance lower vs young age group,"elderly, Day 7",approximately 30%
same,t½ higher vs young age group,"elderly, Day 7",~38%
same,mean plasma concentrations higher vs young age subgroup,elderly,~40%
same,AUC(0-t),"female, human, females, all doses pooled, Day 1, read-out: AUC0-24, Mean (SD)",2340 ng·h/mL
same,AUC(0-t),"female, human, females, all doses pooled, Day 1, read-out: AUClast, Mean (SD)",2310 ng·h/mL
same,Cmax,"female, human, females, all doses pooled, Day 1",270 ng/mL
same,Vd/F,"female, human, females, all doses pooled, Day 1, read-out: Vz/F, Mean (SD)",182 L
same,Tmax,"female, human, females, all doses pooled, Day 1, read-out: tmax, Mean (SD)",2.26 h
same,Tmax,"female, human, females, all doses pooled, Day 1, read-out: tmax, Median",2 h
same,AUC(0-t),"female, human, females, all doses pooled, Day 7, read-out: AUC0-24, Mean (SD)",4470 ng·h/mL
same,AUC(0-inf),[1],9320 ng·h/mL
same,AUC(0-t),"female, human, females, all doses pooled, Day 7, read-out: AUClast, Mean (SD)",8580 ng·h/mL
same,Cmax,[1],373 ng/mL
same,Vd/F,"female, human, females, all doses pooled, Day 7, read-out: Vss/F, Mean (SD)",105 L
same,half-life,[1],1430 min
same,Tmax,"female, human, females, all doses pooled, Day 7, read-out: tmax, Mean (SD)",2.31 h
same,Tmax,"female, human, females, all doses pooled, Day 7, read-out: tmax, Median",2 h
same,"Day 7/Day 1 Cmax Ratio, Mean (SD)","females, all doses pooled",1.38 (0.27)
same,"Observed Accumulation Index, Mean (SD)","females, all doses pooled",1.88 (0.37)
same,"Steady State Accumulation Index, Mean (SD)","females, all doses pooled",1.10 (0.15)
same,"CL/F, Mean (SD)",[2],5.79 (0.84) L/h
same,"Dose-Normalized Cmax, Mean (SD)",[2],20.59 (2.86) ng/mL/mg
same,"AUC% extrap, Mean (SD)",[3],6.76 (4.26) %
same,"CL/F, Mean (SD)",[3],3.19 (0.84) L/h
same,"Dose-Normalized AUCinf, Mean (SD)",[3],698.59 (282.19) h * ng/mL/mg
same,"Dose-Normalized Cmax, Mean (SD)",[3],27.98 (5.43) ng/mL/mg
same,effects on average nighttime SBP and DBP,"human, in vivo",smaller and less consistently observed
same,"Day 7/Day 1 Cmax Ratio, Mean (SD)","intermediate age, 12 mg",1.41 (0.17)
same,"Observed Accumulation Index, Mean (SD)","intermediate age, 12 mg",1.92 (0.25)
same,"Steady State Accumulation Index, Mean (SD)","intermediate age, 12 mg",1.13 (0.16)
same,"CL/F, Mean (SD)","intermediate age, 12 mg, Day 1",6.22 (1.34) L/h
same,"Dose-Normalized Cmax, Mean (SD)","intermediate age, 12 mg, Day 1",21.42 (4.22) ng/mL/mg
same,"AUC% extrap, Mean (SD)","intermediate age, 12 mg, Day 7",7.51 (1.85) %
same,"CL/F, Mean (SD)","intermediate age, 12 mg, Day 7",3.27 (0.80) L/h
same,"Dose-Normalized AUCinf, Mean (SD)","intermediate age, 12 mg, Day 7",675.34 (189.17) h * ng/mL/mg
same,"Dose-Normalized Cmax, Mean (SD)","intermediate age, 12 mg, Day 7",30.03 (5.40) ng/mL/mg
same,apparent oral clearance lower vs young age group,"intermediate age, Day 7",approximately 18%
same,t½ higher vs young age group,"intermediate age, Day 7",approximately 27%
same,mean plasma concentrations higher vs young age subgroup,intermediate age,approximately 20%
same,AUC(0-t),"male, human, males, all doses pooled, Day 1, read-out: AUC0-24, Mean (SD)",2210 ng·h/mL
same,AUC(0-t),"male, human, males, all doses pooled, Day 1, read-out: AUClast, Mean (SD)",2190 ng·h/mL
same,Cmax,"male, human, males, all doses pooled, Day 1",262 ng/mL
same,Vd/F,"male, human, males, all doses pooled, Day 1, read-out: Vz/F, Mean (SD)",147 L
same,Tmax,"male, human, males, all doses pooled, Day 1, read-out: tmax, Mean (SD)",2.12 h
same,Tmax,"male, human, males, all doses pooled, Day 1, read-out: tmax, Median",2 h
same,AUC(0-t),"male, human, males, all doses pooled, Day 7, read-out: AUC0-24, Mean (SD)",3750 ng·h/mL
same,AUC(0-inf),[4],6770 ng·h/mL
same,AUC(0-t),"male, human, males, all doses pooled, Day 7, read-out: AUClast, Mean (SD)",6350 ng·h/mL
same,Cmax,[4],355 ng/mL
same,Vd/F,"male, human, males, all doses pooled, Day 7, read-out: Vss/F, Mean (SD)",108 L
same,half-life,[4],1230 min
same,Tmax,"male, human, males, all doses pooled, Day 7, read-out: tmax, Mean (SD)",1.88 h
same,Tmax,"male, human, males, all doses pooled, Day 7, read-out: tmax, Median",1.75 h
same,"Day 7/Day 1 Cmax Ratio, Mean (SD)","males, all doses pooled",1.36 (0.22)
same,"Observed Accumulation Index, Mean (SD)","males, all doses pooled",1.72 (0.28)
same,"Steady State Accumulation Index, Mean (SD)","males, all doses pooled",1.15 (0.16)
same,"CL/F, Mean (SD)","males, all doses pooled, Day 1",6.19 (1.15) L/h
same,"Dose-Normalized Cmax, Mean (SD)","males, all doses pooled, Day 1",19.78 (3.09) ng/mL/mg
same,"AUC% extrap, Mean (SD)","males, all doses pooled, Day 7",6.06 (5.38) %
same,"CL/F, Mean (SD)","males, all doses pooled, Day 7",3.74 (0.83) L/h
same,"Dose-Normalized AUCinf, Mean (SD)","males, all doses pooled, Day 7",512.15 (188.98) h * ng/mL/mg
same,"Dose-Normalized Cmax, Mean (SD)","males, all doses pooled, Day 7",26.21 (3.94) ng/mL/mg
same,steady-state predose plasma concentrations achieved by,repeated daily doses,≤ 5 study day
same,"steady-state accumulation index, on average",seven days of daily dosing,1.1
same,"Observed Accumulation Index, Mean (SD)","young subjects, 8 mg",1.58 (0.19)
same,"CL/F, Mean (SD)","young subjects, 8 mg, Day 1",5.36 (0.48) L/h
same,"Dose-Normalized Cmax, Mean (SD)","young subjects, 8 mg, Day 1",22.42 (2.27) ng/mL/mg
same,"AUC% extrap, Mean (SD)","young subjects, 8 mg, Day 7",8.61 (8.27) %
same,"CL/F, Mean (SD)","young subjects, 8 mg, Day 7",3.37 (0.37) L/h
same,"Dose-Normalized AUCinf, Mean (SD)","young subjects, 8 mg, Day 7",513.73 (174.76) h * ng/mL/mg
same,"Dose-Normalized Cmax, Mean (SD)","young subjects, 8 mg, Day 7",28.00 (3.75) ng/mL/mg
same,"Day 7/Day 1 Cmax Ratio, Mean (SD)","young subjects, 12 mg",1.15 (0.18)
same,"Observed Accumulation Index, Mean (SD)","young subjects, 12 mg",1.65 (0.31)
same,"Steady State Accumulation Index, Mean (SD)","young subjects, 12 mg",1.01 (0.08)
same,"CL/F, Mean (SD)","young subjects, 12 mg, Day 1",6.46 (0.18) L/h
same,"Dose-Normalized Cmax, Mean (SD)","young subjects, 12 mg, Day 1",19.92 (2.78) ng/mL/mg
same,"AUC% extrap, Mean (SD)","young subjects, 12 mg, Day 7",4.77 (2.72) %
same,"CL/F, Mean (SD)","young subjects, 12 mg, Day 7",4.00 (0.60) L/h
same,"Dose-Normalized AUCinf, Mean (SD)","young subjects, 12 mg, Day 7",494.43 (177.79) h * ng/mL/mg
same,"Dose-Normalized Cmax, Mean (SD)","young subjects, 12 mg, Day 7",22.79 (3.67) ng/mL/mg
same,"Observed Accumulation Index, Mean (SD)","young subjects, 16 mg",1.70 (0.54)
same,"CL/F, Mean (SD)","young subjects, 16 mg, Day 1",6.12 (0.90) L/h
same,"Dose-Normalized Cmax, Mean (SD)","young subjects, 16 mg, Day 1",19.11 (1.97) ng/mL/mg
same,"AUC% extrap, Mean (SD)","young subjects, 16 mg, Day 7",5.38 (5.13) %
same,"CL/F, Mean (SD)","young subjects, 16 mg, Day 7",4.01 (1.21) L/h
same,"Dose-Normalized AUCinf, Mean (SD)","young subjects, 16 mg, Day 7",501.47 (311.57) h * ng/mL/mg
same,"Dose-Normalized Cmax, Mean (SD)","young subjects, 16 mg, Day 7",25.80 (4.07) ng/mL/mg
same,"Observed Accumulation Index, Mean (SD)","young subjects, 20 mg",1.71 (0.22)
same,"CL/F, Mean (SD)","young subjects, 20 mg, Day 1",5.90 (1.31) L/h
same,"Dose-Normalized Cmax, Mean (SD)","young subjects, 20 mg, Day 1",19.18 (2.87) ng/mL/mg
same,"AUC% extrap, Mean (SD)","young subjects, 20 mg, Day 7",2.88 (1.30) %
same,"CL/F, Mean (SD)","young subjects, 20 mg, Day 7",3.51 (0.97) L/h
same,"Dose-Normalized AUCinf, Mean (SD)","young subjects, 20 mg, Day 7",523.40 (175.33) h * ng/mL/mg
same,"Dose-Normalized Cmax, Mean (SD)","young subjects, 20 mg, Day 7",26.72 (4.88) ng/mL/mg
